According to US20020137929A1, “1 - (3-heterocyclylphenyl) isothiourea, -isourea, -guanidine and -amidine herbicidal agents” (Intellectual Property Department, BASF Aktiengesellschaft, priority 1998, published 2002):

What was measured:
[1] = tested on: CYPIR (Rice Flatsedge); experiment: Postemergence weed control under flooded paddy conditions; assay type: in vivo, Cyperus iria; conditions: postemergence weeds, 3-4 weeks after treatment
In short: (§1)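 Containers holding 3–5 cm weeds and rice at 1.5–2.5 leaves are flooded to 1.5–3 cm above soil. Compound in 50/50 v/v aqueous/acetone is then added directly to the water, about 0.0313–0.500 kg/ha. Plants are kept in the greenhouse and rated 0–9 visually at 3–4 weeks.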

[2] = tested on: TRZAWR (Wheat, Winter, cv Riband); experiment: Preemergence herbicidal evaluation; assay type: in vivo, Triticum aestivum; conditions: rated 4-5 weeks after treatment
In short: (§2)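 Seeds were mixed with potting soil and planted on about one inch of soil, then sprayed with test compound in aqueous acetone at about 0.0156 to 0.500 kg per hectare. Plants grew under standard greenhouse care and were visually rated 0-9 against untreated controls 4-5 weeks post-treatment.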

[3] = tested on: CYPSE (Flatsedge); experiment: Preemergence weed control under flooded paddy conditions; assay type: in vivo, Cyperus serotinus; conditions: rated 3-4 weeks after treatment
In short: (§3)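 Seeds or propagules sown in silt loam kept flooded 1.5-3 cm; compounds in 50/50 acetone/water pipetted into flood water at about 0.0313 to 0.500 kg/ha. Greenhouse; visual 0-9 rating versus untreated control 3-4 weeks after treatment.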

[4] = tested on: CYPIR (Rice Flatsedge); experiment: as above; assay type: in vivo, Cyperus iria; conditions: rated 3-4 weeks after treatment
In short: as §3

[5] = tested on: ZEAMX (Corn, Field); experiment: Preemergence herbicidal evaluation; assay type: in vivo, Zea mays; conditions: rated 4-5 weeks after treatment
In short: as §2

[6] = tested on: SAGPY (Arrowhead (Pygmaea)); experiment: Postemergence weed control under flooded paddy conditions; assay type: in vivo, Sagittaria pygmaea; conditions: postemergence weeds, 3-4 weeks after treatment
In short: as §1

[7] = tested on: ZEAMX (Corn, Field); experiment: Postemergence herbicidal evaluation; assay type: in vivo, Zea mays
In short: (§4)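 Two-week seedlings sprayed postemergence at 40 psi; formulation: 1:1 acetone/water, 0.5% TWEEN 20; application ≈0.0156–0.500 kg/ha. Greenhouse grow-out, then 0–9 visual scoring at 4–5 weeks.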

[8] = tested on: ECHCG (Barnyardgrass); experiment: Preemergence herbicidal evaluation; assay type: in vivo, Echinochloa crus-galli; conditions: rated 4-5 weeks after treatment
In short: as §2

[9] = tested on: ECHORC (Watergrass (Calif.)); experiment: Postemergence weed control under flooded paddy conditions; assay type: in vivo, Echinochloa oryzoides; conditions: postemergence weeds, 3-4 weeks after treatment
In short: as §1

[10] = tested on: CYPSE (Flatsedge); experiment: as above; assay type: in vivo, Cyperus serotinus; conditions: postemergence weeds, 3-4 weeks after treatment
In short: as §1

[11] = tested on: ORYSAT (Rice, Tebonnet); experiment: Postemergence herbicidal evaluation; assay type: in vivo, Oryza sativa, (L.) Tebonnet
In short: as §4

[12] = tested on: SETVI (Foxtail, Green); experiment: Preemergence herbicidal evaluation; assay type: in vivo, Setaria viridis; conditions: rated 4-5 weeks after treatment
In short: as §2

[13] = tested on: ECHORC (Watergrass (Calif.)); experiment: Preemergence weed control under flooded paddy conditions; assay type: in vivo, Echinochloa oryzoides; conditions: rated 3-4 weeks after treatment
In short: as §3

[14] = tested on: SETVI (Foxtail, Green); experiment: Postemergence herbicidal evaluation; assay type: in vivo, Setaria viridis
In short: as §4

## Cn1c(C(F)(F)F)cc(=O)n(-c2cc(N=C3SCC(=O)N3CCC(=O)O)c(Cl)cc2F)c1=O [Compound 30, 2-{{2-Chloro-5-[3,6-dihydro-3-methyl-2,6-dioxo-4-(trifluoromethyl)-1(2H)-pyrimidinyl]-4-fluorophenyl}imino}-4-oxo-3-thiazolidinepropionic acid]
[1]; rate 0.1250 kg/ha
  Herbicidal rating CYPIR: 2.0
[1]; rate 0.2500 kg/ha
  Herbicidal rating CYPIR: 4.5
[2]; rate 0.0313 kg/ha
  Preemergence herbicidal rating TRZAWR: 0.0
[2]; rate 0.0625 kg/ha
  Preemergence herbicidal rating TRZAWR: 1.0
[2]; rate 0.1250 kg/ha
  Preemergence herbicidal rating TRZAWR: 2.0
[2]; rate 0.2500 kg/ha
  Preemergence herbicidal rating TRZAWR: 6.0
[3]; 0.1250 kg/ha
  Herbicidal rating CYPSE: 0.0
[3]; 0.2500 kg/ha
  Herbicidal rating CYPSE: 0.0
[4]; 0.1250 kg/ha
  Herbicidal rating CYPIR: 2.0
[4]; 0.2500 kg/ha
  Herbicidal rating CYPIR: 4.5
[5]; rate 0.0313 kg/ha
  Preemergence herbicidal rating ZEAMX: 1.0
[5]; rate 0.0625 kg/ha
  Preemergence herbicidal rating ZEAMX: 3.0
[5]; rate 0.1250 kg/ha
  Preemergence herbicidal rating ZEAMX: 3.0
[5]; rate 0.2500 kg/ha
  Preemergence herbicidal rating ZEAMX: 6.0
[6]; rate 0.1250 kg/ha
  Herbicidal rating SAGPY: 0.0
[6]; rate 0.2500 kg/ha
  Herbicidal rating SAGPY: 2.0
[7]; Rate 0.0158 kg/ha
  Postemergence herbicidal rating ZEAMX: 3.0
[7]; Rate 0.0315 kg/ha
  Postemergence herbicidal rating ZEAMX: 4.5
[7]; Rate 0.0630 kg/ha
  Postemergence herbicidal rating ZEAMX: 6.0
[8]; rate 0.0313 kg/ha
  Preemergence herbicidal rating ECHCG: 0.0
[8]; rate 0.0625 kg/ha
  Preemergence herbicidal rating ECHCG: 0.0
[8]; rate 0.1250 kg/ha
  Preemergence herbicidal rating ECHCG: 0.0
[8]; rate 0.2500 kg/ha
  Preemergence herbicidal rating ECHCG: 0.0
[9]; rate 0.1250 kg/ha
  Herbicidal rating ECHORC: 0.0
[9]; rate 0.2500 kg/ha
  Herbicidal rating ECHORC: 0.0
[10]; rate 0.1250 kg/ha
  Herbicidal rating CYPSE: 0.0
[10]; rate 0.2500 kg/ha
  Herbicidal rating CYPSE: 0.0
[11]; Rate 0.0158 kg/ha
  Postemergence herbicidal rating ORYSAT: 2.0
[11]; Rate 0.0315 kg/ha
  Postemergence herbicidal rating ORYSAT: 2.5
[11]; Rate 0.0630 kg/ha
  Postemergence herbicidal rating ORYSAT: 3.5
[12]; rate 0.0313 kg/ha
  Preemergence herbicidal rating SETVI: 0.0
[12]; rate 0.0625 kg/ha
  Preemergence herbicidal rating SETVI: 0.0
[12]; rate 0.1250 kg/ha
  Preemergence herbicidal rating SETVI: 7.0
[12]; rate 0.2500 kg/ha
  Preemergence herbicidal rating SETVI: 9.0
[13]; 0.1250 kg/ha
  Herbicidal rating ECHORC: 0.0
[13]; 0.2500 kg/ha
  Herbicidal rating ECHORC: 0.0
[14]; Rate 0.0158 kg/ha
  Postemergence herbicidal rating SETVI: 0.0
[14]; Rate 0.0315 kg/ha
  Postemergence herbicidal rating SETVI: 0.0
[14]; Rate 0.0630 kg/ha
  Postemergence herbicidal rating SETVI: 0.0

## Cn1c(C(F)(F)F)cc(=O)n(-c2cc(N=C3SCC(=O)N3CCC(=O)O)c(Cl)cc2F)c1=O [Compound 31, 2-{{2-Chloro-5-[3,6-dihydro-3-methyl-2,6-dioxo-4-(trifluoromethyl)-1(2H)-pyrimidinyl]-4-fluoro-phenyl}imino}-4-oxo-3-thiazolidinepropionic acid]
[1]; rate 0.0625 kg/ha
  Herbicidal rating CYPIR: 0.0
[1]; rate 0.1250 kg/ha
  Herbicidal rating CYPIR: 0.0
[1]; rate 0.2500 kg/ha
  Herbicidal rating CYPIR: 2.5
[2]; rate 0.0625 kg/ha
  Preemergence herbicidal rating TRZAWR: 0.0
[2]; rate 0.1250 kg/ha
  Preemergence herbicidal rating TRZAWR: 3.0
[2]; rate 0.2500 kg/ha
  Preemergence herbicidal rating TRZAWR: 7.0
[3]; 0.0625 kg/ha
  Herbicidal rating CYPSE: 0.0
[3]; 0.1250 kg/ha
  Herbicidal rating CYPSE: 0.0
[3]; 0.2500 kg/ha
  Herbicidal rating CYPSE: 0.0
[4]; 0.0625 kg/ha
  Herbicidal rating CYPIR: 0.0
[4]; 0.1250 kg/ha
  Herbicidal rating CYPIR: 0.0
[4]; 0.2500 kg/ha
  Herbicidal rating CYPIR: 2.5
[5]; rate 0.0625 kg/ha
  Preemergence herbicidal rating ZEAMX: 3.0
[5]; rate 0.1250 kg/ha
  Preemergence herbicidal rating ZEAMX: 7.0
[5]; rate 0.2500 kg/ha
  Preemergence herbicidal rating ZEAMX: 9.0
[6]; rate 0.0625 kg/ha
  Herbicidal rating SAGPY: 0.0
[6]; rate 0.1250 kg/ha
  Herbicidal rating SAGPY: 0.0
[6]; rate 0.2500 kg/ha
  Herbicidal rating SAGPY: 0.0
[7]; Rate 0.0158 kg/ha
  Postemergence herbicidal rating ZEAMX: 7.0
[7]; Rate 0.0315 kg/ha
  Postemergence herbicidal rating ZEAMX: 7.5
[7]; Rate 0.0630 kg/ha
  Postemergence herbicidal rating ZEAMX: 8.0
[8]; rate 0.0625 kg/ha
  Preemergence herbicidal rating ECHCG: 0.0
[8]; rate 0.1250 kg/ha
  Preemergence herbicidal rating ECHCG: 9.0
[8]; rate 0.2500 kg/ha
  Preemergence herbicidal rating ECHCG: 9.0
[9]; rate 0.0625 kg/ha
  Herbicidal rating ECHORC: 1.0
[9]; rate 0.1250 kg/ha
  Herbicidal rating ECHORC: 2.0
[9]; rate 0.2500 kg/ha
  Herbicidal rating ECHORC: 5.0
[10]; rate 0.0625 kg/ha
  Herbicidal rating CYPSE: 0.0
[10]; rate 0.1250 kg/ha
  Herbicidal rating CYPSE: 0.0
[10]; rate 0.2500 kg/ha
  Herbicidal rating CYPSE: 0.0
[11]; Rate 0.0158 kg/ha
  Postemergence herbicidal rating ORYSAT: 3.5
[11]; Rate 0.0315 kg/ha
  Postemergence herbicidal rating ORYSAT: 4.0
[11]; Rate 0.0630 kg/ha
  Postemergence herbicidal rating ORYSAT: 5.5
[12]; rate 0.0625 kg/ha
  Preemergence herbicidal rating SETVI: 1.0
[12]; rate 0.1250 kg/ha
  Preemergence herbicidal rating SETVI: 9.0
[12]; rate 0.2500 kg/ha
  Preemergence herbicidal rating SETVI: 9.0
[13]; 0.0625 kg/ha
  Herbicidal rating ECHORC: 1.0
[13]; 0.1250 kg/ha
  Herbicidal rating ECHORC: 2.0
[13]; 0.2500 kg/ha
  Herbicidal rating ECHORC: 5.0
[14]; Rate 0.0158 kg/ha
  Postemergence herbicidal rating SETVI: 0.0
[14]; Rate 0.0315 kg/ha
  Postemergence herbicidal rating SETVI: 0.0
[14]; Rate 0.0630 kg/ha
  Postemergence herbicidal rating SETVI: 7.0
